The values below come from patent publication US9169252B2 (BRISTOL-MYERS SQUIBB COMPANY, priority 2014, dated 2015).

Where two headings read alike, the source gives them in different places.

One experiment concerns the target IRAK4 (Homo sapiens (Human), UniProt Q9NWZ3). In words: IRAK4 Inhibition Assay. It counts as biochemical. The settings on record: IRAK4 Inhibition Assay; ATP 500 μM; read-out: IRAK4 IC50. In short, it runs like this: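 IRAK4 combined with fluorescent substrate and compounds, reacted 60 min at room temperature, stopped with 35 mM EDTA. Substrate and phosphorylated product separated electrophoretically on a Caliper LabChip 3000 mobility-shift reader.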

In experiment [1] the test system is TLR2 induced IL-6 in peripheral blood mononuclear cells (PBMCs). Description: PBMC TLR2 Induced IL-6 Assay. It counts as cell-based, human. The settings on record: PBMC TLR2 Induced IL-6 Assay, lipoteichoic acid stimulation, IL-6 by ELISA; for EC50: read-out: Cell EC50; for IC50: read-out: Cell IC50. The method, boiled down: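 Lipoteichoic acid at 10 µg/ml served as TLR2 stimulus for 5 hours, following a 30-minute compound pretreatment at 37° C. Cells were Ficoll-isolated human PBMCs, 250000 cells/well, cultured in RPMI plus 10% heat-inactivated FCS.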
Background: ELISA stands for enzyme-linked immunosorbent assay.

Chain of IRAK4 (Q9NWZ3 whole entry, species assumed): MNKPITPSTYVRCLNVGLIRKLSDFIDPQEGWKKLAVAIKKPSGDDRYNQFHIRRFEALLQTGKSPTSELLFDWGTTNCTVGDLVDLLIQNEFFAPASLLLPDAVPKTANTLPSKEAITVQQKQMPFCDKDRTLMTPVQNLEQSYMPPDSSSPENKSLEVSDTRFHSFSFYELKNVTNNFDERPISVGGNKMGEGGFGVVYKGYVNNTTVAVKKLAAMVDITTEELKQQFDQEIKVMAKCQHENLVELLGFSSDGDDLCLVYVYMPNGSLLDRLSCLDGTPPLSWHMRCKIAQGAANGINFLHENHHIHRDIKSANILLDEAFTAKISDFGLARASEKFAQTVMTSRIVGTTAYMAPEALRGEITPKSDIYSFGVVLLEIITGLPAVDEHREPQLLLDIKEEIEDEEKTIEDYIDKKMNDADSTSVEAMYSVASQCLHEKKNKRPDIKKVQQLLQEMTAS

On to `CNC(=O)[C@H]1CC[C@H](NC(=O)c2cnc(-n3ccc4cncnc43)cc2NC2CCOCC2)CC1` [Example 82, N-((trans)-4-(methylcarbamoyl)cyclohexyl)-6-(7H-pyrrolo[2,3-d]pyrimidin-7-yl)-4-((tetrahydro-2H-pyran-4-yl)amino)nicotinamide], for which the concentration for half-maximal inhibition (IC50) at IRAK4 amounted to 0.0044 µM; in experiment [1] (Homo sapiens, PBMC), 0.578 µM. Also, the EC50 in experiment [1] (Homo sapiens, PBMC) stood at 0.166 µM.

Consider `CC(=O)N[C@H]1CC[C@H](NC(=O)c2cnc(-n3ccc4cncnc43)cc2NC2CCOCC2)CC1` [Example 83, N-((trans)-4-acetamidocyclohexyl)-6-(7H-pyrrolo[2,3-d]pyrimidin-7-yl)-4-((tetrahydro-2H-pyran-4-yl)amino)nicotinamide], for which the 50% inhibitory concentration (IC50) on IRAK4 is 0.0049 µM. For the same compound, in experiment [1] (Homo sapiens, PBMC), the EC50 amounted to 0.443 µM and the 50% inhibitory concentration (IC50) was determined as 0.777 µM.

In the case of `CC(=O)N[C@H]1CC[C@H](NC(=O)c2cnc(-n3ccc4cncnc43)cc2NC(C)C)CC1` [Example 84, N-((trans)-4-acetamidocyclohexyl)-4-(isopropylamino)-6-(7H-pyrrolo[2,3-d]pyrimidin-7-yl)nicotinamide], the concentration for half-maximal inhibition (IC50) at IRAK4 came to 0.0093 µM. Moreover, in experiment [1] (Homo sapiens, PBMC), the EC50 stood at 2 µM and the 50% inhibitory concentration (IC50) came out at 2.01 µM.

Take `CNC(=O)[C@H]1CC[C@H](NC(=O)c2cnc(-n3ccc4cc(C#N)cnc43)cc2NC2CC2)CC1` [Example 85, 6-(5-cyano-1H-pyrrolo[2,3-b]pyridin-1-yl)-4-(cyclopropylamino)-N-((trans)-4-(methylcarbamoyl)cyclohexyl) nicotinamide]: the concentration for half-maximal inhibition (IC50) on IRAK4 is 0.0133 µM. The EC50 in experiment [1] (Homo sapiens, PBMC) is 0.523 µM.

Take `CC(=O)N[C@H]1CC[C@H](NC(=O)c2cnc(-n3ccc4cc(C#N)cnc43)cc2NC2CC2)CC1` [Example 87, N-((trans)-4-acetamidocyclohexyl)-6-(5-cyano-1H-pyrrolo[2,3-b]pyridin-1-yl)-4-(cyclopropylamino)nicotinamide]: the concentration for half-maximal inhibition (IC50) on IRAK4 amounted to 0.0019 µM. Besides, the concentration giving a half-maximal response (EC50) in experiment [1] (Homo sapiens, PBMC) came out at 0.063 µM.

Take `CC(=O)N[C@H]1CC[C@H](NC(=O)c2cnc(-n3ccc4cc(C#N)cnc43)cc2NC2CCOCC2)CC1` [Example 88, N-((trans)-4-acetamidocyclohexyl)-6-(5-cyano-1H-pyrrolo[2,3-b]pyridin-1-yl)-4-((tetrahydro-2H-pyran-4-yl)amino)nicotinamide]: the IC50 on IRAK4 was determined as 0.0071 µM. The EC50 in experiment [1] (Homo sapiens, PBMC) was determined as 0.345 µM.

In the case of `CNC(=O)[C@H]1CC[C@H](NC(=O)c2cnc(-n3ccc4cc(C#N)cnc43)cc2N[C@@H](C)CO)CC1` [Example 89, 6-(5-cyano-1H-pyrrolo[2,3-b]pyridin-1-yl)-4-(((S)-1-hydroxypropan-2-yl)amino)-N-((1r,4S)-4-(methylcarbamoyl)cyclohexyl)nicotinamide], the concentration for half-maximal inhibition (IC50) at IRAK4 worked out at 0.0033 µM. Besides, the EC50 in experiment [1] (Homo sapiens, PBMC) came out at 0.09 µM.

Take `CC(C)Nc1cc(-n2ccc3cc(C#N)cnc32)ncc1C(=O)N[C@H]1CC[C@H](C(=O)NC(C)C)CC1` [Example 90, 6-(5-cyano-1H-pyrrolo[2,3-b]pyridin-1-yl)-4-(isopropylamino)-N-((trans)-4-(isopropylcarbamoyl)cyclohexyl) nicotinamide]: on IRAK4, the IC50 is 0.0019 µM. The EC50 in experiment [1] (Homo sapiens, PBMC) came out at 0.041 µM.

With `CC(C)Nc1cc(-n2ccc3cc(C#N)cnc32)ncc1C(=O)N[C@H]1CC[C@H](C(=O)NC2CC2)CC1` [Example 91, 6-(5-cyano-1H-pyrrolo[2,3-b]pyridin-1-yl)-N-((trans)-4-(cyclopropylcarbamoyl)cyclohexyl)-4-(isopropylamino)nicotinamide], at IRAK4, the IC50 was found to be 0.002 µM. Also, the concentration for a half-maximal effect (EC50) in experiment [1] (Homo sapiens, PBMC) stood at 0.032 µM.

Turning to `CCNC(=O)[C@H]1CC[C@H](NC(=O)c2cnc(-n3ccc4cc(C#N)cnc43)cc2NC(C)C)CC1` [Example 92, 6-(5-cyano-1H-pyrrolo[2,3-b]pyridin-1-yl)-N-((trans)-4-(ethylcarbamoyl)cyclohexyl)-4-(isopropylamino)nicotinamide], at IRAK4, the IC50 is 0.0017 µM. The EC50 in experiment [1] (Homo sapiens, PBMC) was 0.079 µM.

On to `CNC(=O)[C@H]1CC[C@H](NC(=O)c2cnc(-n3ccc4cc(C#N)cnc43)cc2NCC(C)(C)O)CC1` [Example 93, 6-(5-cyano-1H-pyrrolo[2,3-b]pyridin-1-yl)-4-((2-hydroxy-2-methylpropyl)amino)-N-((trans)-4-(methylcarbamoyl)cyclohexyl) nicotinamide], for which the IC50 at IRAK4 worked out at 0.0084 µM. Moreover, in experiment [1], the concentration giving a half-maximal response (EC50) was determined as 0.562 µM.

For the compound `CC(C)Nc1cc(-n2ccc3cc(C#N)cnc32)ncc1C(=O)N[C@H]1CC[C@H](C(C)(C)O)CC1` [Example 96, 6-(5-cyano-1H-pyrrolo[2,3-b]pyridin-1-yl)-N-((trans)-4-(2-hydroxypropan-2-yl)cyclohexyl)-4-(isopropylamino)nicotinamide], the IC50 at IRAK4 was 0.0014 µM. Besides, in experiment [1] (Homo sapiens, PBMC), the EC50 came out at 0.038 µM.

On to `COC(=O)N[C@H]1CC[C@H](NC(=O)c2cnc(-n3ccc4cc(C#N)cnc43)cc2NC(C)C)CC1` [Example 97, methyl((trans)-4-(6-(5-cyano-1H-pyrrolo[2,3-b]pyridin-1-yl)-4-(isopropylamino)nicotinamido)cyclohexyl)carbamate], for which the IC50 at IRAK4 came to 0.0049 µM. The 50% effective concentration (EC50) in experiment [1] (Homo sapiens, PBMC) amounted to 0.108 µM.

For the compound `CC(C)Nc1cc(-n2ccc3cc(C#N)cnc32)ncc1C(=O)N[C@H]1CC[C@H](O)CC1` [Example 98, 6-(5-cyano-1H-pyrrolo[2,3-b]pyridin-1-yl)-N-((trans)-4-hydroxycyclohexyl)-4-(isopropylamino)nicotinamide], the concentration for half-maximal inhibition (IC50) at IRAK4 worked out at 0.0033 µM. In addition, the 50% effective concentration (EC50) in experiment [1] (Homo sapiens, PBMC) was found to be 0.176 µM.

For `CC(C)Nc1cc(-n2ccc3cc(C#N)cnc32)ncc1C(=O)N[C@H]1CC[C@](C)(O)CC1` [Example 99, 6-(5-cyano-1H-pyrrolo[2,3-b]pyridin-1-yl)-N-((trans)-4-hydroxy-4-methylcyclohexyl)-4-(isopropylamino)nicotinamide], the IC50 on IRAK4 was 0.0046 µM. Moreover, the half-maximal effective concentration (EC50) in experiment [1] (Homo sapiens, PBMC) came to 0.223 µM.

For the compound `CCNc1cc(-n2ccc3cc(C#N)cnc32)ncc1C(=O)N[C@H]1CC[C@H](C(C)(C)O)CC1` [Example 100, 6-(5-cyano-1H-pyrrolo[2,3-b]pyridin-1-yl)-4-(ethylamino)-N-((trans)-4-(2-hydroxypropan-2-yl)cyclohexyl)nicotinamide], the IC50 on IRAK4 came out at 0.0025 µM. Besides, in experiment [1] (Homo sapiens, PBMC), the concentration for a half-maximal effect (EC50) was determined as 0.095 µM.

In the case of `CS[C@H]1CC[C@H](NC(=O)c2cnc(-n3ccc4cc(C#N)cnc43)cc2NC(C)C)CC1` [Example 101, 6-(5-Cyano-1H-pyrrolo[2,3-b]pyridin-1-yl)-4-(isopropylamino)-N-((trans)-4-(methylthio)cyclohexyl)nicotinamide], the half-maximal inhibitory concentration (IC50) on IRAK4 stood at 0.0078 µM. In experiment [1] (Homo sapiens, PBMC), the EC50 came out at 0.112 µM.

For `CC(C)Nc1cc(-n2ccc3cc(C#N)cnc32)ncc1C(=O)N[C@H]1CC[C@H](S(C)(=O)=O)CC1` [Example 102, 6-(5-Cyano-1H-pyrrolo[2,3-b]pyridin-1-yl)-4-(isopropylamino)-N-((trans)-4-(methylsulfonyl)cyclohexyl)nicotinamide], the concentration for half-maximal inhibition (IC50) on IRAK4 worked out at 0.0036 µM. In addition, the EC50 in experiment [1] (Homo sapiens, PBMC) is 0.047 µM.

For the compound `CS(=O)(=O)[C@H]1CC[C@H](NC(=O)c2cnc(-n3ccc4cc(C#N)cnc43)cc2NC2CCOCC2)CC1` [Example 103, 6-(5-Cyano-1H-pyrrolo[2,3-b]pyridin-1-yl)-N-((trans)-4-(methylsulfonyl)cyclohexyl)-4-((tetrahydro-2H-pyran-4-yl)amino)nicotinamide], the half-inhibitory concentration (IC50) at IRAK4 is 0.0035 µM. Also, the EC50 in experiment [1] (Homo sapiens, PBMC) is 0.125 µM.

Take `CS(=O)(=O)[C@H]1CC[C@H](NC(=O)c2cnc(-n3ccc4cc(C#N)cnc43)cc2NC2CC2)CC1` [Example 104, 6-(5-Cyano-1H-pyrrolo[2,3-b]pyridin-1-yl)-4-(cyclopropylamino)-N-((trans)-4-(methylsulfonyl)cyclohexyl)nicotinamide]: the concentration for half-maximal inhibition (IC50) on IRAK4 is 0.0017 µM. The half-maximal effective concentration (EC50) in experiment [1] (Homo sapiens, PBMC) stood at 0.067 µM.

`CS(=O)(=O)[C@H]1CC[C@H](NC(=O)c2cnc(-n3ccc4cc(C#N)cnc43)cc2Nc2cccc(C(N)=O)c2)CC1` [Example 105, 4-((3-Carbamoylphenyl)amino)-6-(5-cyano-1H-pyrrolo[2,3-b]pyridin-1-yl)-N-((trans)-4-(methylsulfonyl)cyclohexyl)nicotinamide]: on IRAK4, the half-maximal inhibitory concentration (IC50) was 0.0039 µM. Further, the EC50 in experiment [1] (Homo sapiens, PBMC) turned out to be 0.437 µM.

Take `CC(CF)Nc1cc(-n2ccc3cncnc32)ncc1C(=O)NC[C@@H](F)C(C)(C)O` (stereo partly drawn) [Example 113, N—((R)-2-Fluoro-3-hydroxy-3-methylbutyl)-4-((1-fluoropropan-2-yl)amino)-6-(7H-pyrrolo[2,3-d]pyrimidin-7-yl)nicotinamide]: the IC50 at IRAK4 is 0.0019 µM. Besides, the EC50 in experiment [1] (Homo sapiens, PBMC) stood at 0.222 µM.

With `C[C@H](CF)Nc1cc(-n2ccc3cncnc32)ncc1C(=O)NC[C@@H](F)C(C)(C)O` [Example 115, N—((R)-2-fluoro-3-hydroxy-3-methylbutyl)-4-(((R)-1-fluoropropan-2-yl)amino)-6-(7H-pyrrolo[2,3-d]pyrimidin-7-yl)nicotinamide], on IRAK4, the IC50 was found to be 0.0033 µM. Further, in experiment [1] (Homo sapiens, PBMC), the half-maximal effective concentration (EC50) worked out at 0.082 µM.

For the compound `C[C@@H](CF)Nc1cc(-n2ccc3cncnc32)ncc1C(=O)NC[C@@H](F)C(C)(C)O` [Example 116, N—((R)-2-fluoro-3-hydroxy-3-methylbutyl)-4-(((S)-1-fluoropropan-2-yl)amino)-6-(7H-pyrrolo[2,3-d]pyrimidin-7-yl)nicotinamide], the half-inhibitory concentration (IC50) on IRAK4 is 0.0062 µM. The 50% effective concentration (EC50) in experiment [1] (Homo sapiens, PBMC) is 0.133 µM.

Take `C[C@@H](CF)Nc1cc(-n2ccc3cc(C#N)cnc32)ncc1C(=O)NC[C@@H](F)C(C)(C)O` [Example 117, 6-(5-cyano-1H-pyrrolo[2,3-b]pyridin-1-yl)-N—((R)-2-fluoro-3-hydroxy-3-methylbutyl)-4-(((S)-1-fluoropropan-2-yl)amino)nicotinamide]: at IRAK4, the IC50 was found to be 0.0024 µM. The EC50 in experiment [1] (Homo sapiens, PBMC) amounted to 0.028 µM.

The term IC50 denotes the midpoint of a concentration-inhibition curve. As usually defined, the EC50 is the concentration at which the effect is half-maximal.
